# Results published in patent US20020002171A1, “Materials and methods for killing nematodes and nematode eggs” (priority 2000, published 2002).
# Test system: Caenorhabditis elegans
# Assay: C. elegans L1 nematicidal dose response in 96-well plates, 5 day visual score (Example 2; same procedure for Example 7, Table 3)
# Type: in vivo
# Parameters: key to 5 Day Visual Score V1 / 5 Day Visual Score V2 / 5 Day Visual Score V3 / 5 Day Visual Score V4 / 5 Day Visual Score V6 / 5 Day Visual Score V5 / Initial HTS Run Visual Score / Follow-up HTS Run Visual Score: Dead: only stiff L1s (no movement); Dead (L4): worms are dead, but at a later larval stage; majority of worms are L1 (based on size) worms move when plate is tapped; majority of worms are L2 (based on size); majority of worms are L3 (based on size); majority of worms are L4 (based on size); AD: majority of worms are adult; #AD: 5 adult worms or less; B!: sterile (0-25 progeny); B: low broodsize (25-100 progeny); ˜B: moderate broodsize (100-250 progeny); <: reduced broodsize (250-500 progeny); OK: no effect (˜1000+ progeny)
# Description: Caenorhabditis elegans adults were grown on Nematode Growth Medium (NGM) until they produced eggs, then the adults were removed.
# The eggs were allowed to hatch, and the L1 larvae collected. See The Nematode Caenorhabditis elegans (1988) Cold Spring Harbor Laboratory Press. Using a Matrix Programmable Pipette, the L1s were distributed into 96-well tissue culture plates, 20 L1 in 50 μl NGM per well. Antibiotic/Antimyoticwas added to each well, and 1% by weight E. coli strain HB101. The subject anthelmintic compounds were stored at 5 mM in 100% DMSO. 0.7 μl of compounds 1-31 were added to the left-most column of wells to yield a final concentration of 70 μM in 1.4% DMSO, with 1.4% DMSO only as the control. The compounds were then subjected to 5 more 3-fold dilutions from left to right to yield 6 column concentrations of 70 μM, 23.3 μM, 7.8 μM, 2.6 μM, 0.9 μM, and 0.3 μM. Plates were stored in air-tight Rubbermaid plastic boxes at 20° C. The nematodes had cleared all control wells by day 4, and nematode viability was scored by visual examination under a 100× dissecting microsope on day 5. A visual viability scoring system was used as follows:
# Column V1 has a compound concentration of 70 μM with sequential 3-fold dilutions reported in columns V2, V3, V4, V5, and V6, respectively, such that the V6 concentration was 0.3 μM.
# The nematicidal activity of anthelmintic Compositions 48-168 were determined in accordance with the procedure outlined in Example 2.
# [1] = dose response, dilution V1, day 5
# [2] = dose response, dilution V4, day 5
# [3] = dose response, dilution V5, day 5
# [4] = dose response, dilution V6, day 5
# [5] = dose response, dilution V1, 5 day
# [6] = dose response, dilution V3, 5 day
# [7] = dose response, dilution V4, 5 day
# [8] = dose response, dilution V5, 5 day
# [9] = dose response, dilution V6, 5 day
# [10] = dose response, dilution V2, day 5
# [11] = dose response, dilution V3, day 5
# [12] = 0.3 μM, C. elegans L1, scored day 5
# [13] = 23.3 μM, C. elegans L1, scored day 5
# [14] = dose response, dilution V2, 5 day
SMILES,Follow-up HTS Run % Run [%],Follow-up HTS Run Visual Score,Follow-up HTS Run mOD [mOD],Initial HTS Run % Run [%],Initial HTS Run Visual Score,Initial HTS Run mOD [mOD],5 Day Visual Score V1 [1],5 Day Visual Score V4 [2],5 Day Visual Score V5 [3],5 Day Visual Score V6 [4],5 Day Visual Score V2 [10],5 Day Visual Score V3 [11],further results
CCCCN(CC)c1nc(N2CCN(c3ccc(F)cc3)CC2)ns1 [compound 236],123,Dead,198,136,1AD/B,150,Dead,< (reduced broodsize (250-500 progeny)),< (reduced broodsize (250-500 progeny)),OK (no effect (˜1000+ progeny)),–,–,–
FC(F)(F)c1cccc(N2CCN(c3nc(Cl)ns3)CC2)c1 [compound 338],116,B (low broodsize (25-100 progeny)),186,94,3AD/B,103,–,–,–,–,–,–,5 Day Visual Score V1 [5]: Dead; 5 Day Visual Score V3 [6]: < (reduced broodsize (250-500 progeny)); 5 Day Visual Score V4 [7]: OK (no effect (˜1000+ progeny)); 5 Day Visual Score V5 [8]: OK (no effect (˜1000+ progeny)); 5 Day Visual Score V6 [9]: < (reduced broodsize (250-500 progeny))
CCCN(CC1CC1)c1nc(N2CCN(c3ncccn3)CC2)ns1 [compound 222],126,–,203,106,L2-Dead L3?,117,#AD/˜B,OK (no effect (˜1000+ progeny)),OK (no effect (˜1000+ progeny)),OK (no effect (˜1000+ progeny)),OK (no effect (˜1000+ progeny)),OK (no effect (˜1000+ progeny)),–
CCCCOc1ccc(-c2noc(C3CCC(NC(=O)c4ccc5c(c4)OCO5)CC3)n2)cc1 (stereo not drawn) [AKC 103],–,–,–,–,–,–,–,–,–,–,–,–,"5 Day Visual Score V6 [12]: < (reduced broodsize (250-500 progeny)); 5 Day Visual Score V5 (0.9 μM, C. elegans L1, scored day 5): L4/#AD/B; 5 Day Visual Score V4 (2.6 μM, C. elegans L1, scored day 5): B (low broodsize (25-100 progeny)); 5 Day Visual Score V3 (7.8 μM, C. elegans L1, scored day 5): Dead(L4); 5 Day Visual Score V2 [13]: Dead(L3/L4)"
CCOC(=O)CCN(Cc1ccccc1)c1nc(N2CCN(c3c(C)cccc3C)CC2)ns1 [compound 233],93,Dead,150,113,1AD/B,124,Dead,OK (no effect (˜1000+ progeny)),OK (no effect (˜1000+ progeny)),OK (no effect (˜1000+ progeny)),–,˜B (moderate broodsize (100-250 progeny)),–
CN(CCc1ccccc1)c1nc(NCCc2ccc(F)cc2)ns1 [compound 243],86,B (low broodsize (25-100 progeny)),139,115,L4/AD/B!,127,–,OK (no effect (˜1000+ progeny)),OK (no effect (˜1000+ progeny)),OK (no effect (˜1000+ progeny)),B (low broodsize (25-100 progeny)),OK (no effect (˜1000+ progeny)),–
CN(CCc1ccccc1)c1nc(NC2CCCCCCCCCCC2)ns1 [AKC 335],82,Dead,132,104,Dead,114,Dead,–,–,OK (no effect (˜1000+ progeny)),Dead,Dead,–
COCCN(CCOC)c1nc(NCc2ccc(C(F)(F)F)cc2)ns1 [compound 257],104,L4/AD/B!,168,91,L4/AD/B!,100,L1,OK (no effect (˜1000+ progeny)),OK (no effect (˜1000+ progeny)),OK (no effect (˜1000+ progeny)),˜B (moderate broodsize (100-250 progeny)),OK (no effect (˜1000+ progeny)),–
CCCCNc1nsc(N2CCN(c3cccc(C(F)(F)F)c3)CC2)n1 [compound 224],122,L1,196,143,–,157,Dead,OK (no effect (˜1000+ progeny)),OK (no effect (˜1000+ progeny)),OK (no effect (˜1000+ progeny)),Dead,< (reduced broodsize (250-500 progeny)),–
CN(Cc1ccccc1)c1nc(NCc2ccccc2)ns1 [compound 328],121,–,195,120,–,132,–,–,–,–,–,–,5 Day Visual Score V1 [5]: L1; 5 Day Visual Score V2 [14]: L1; 5 Day Visual Score V5 [8]: < (reduced broodsize (250-500 progeny))
CCOc1ccc(C2ON=C(c3ccc(F)cc3)C2C(=O)NCCc2ccc(F)cc2)cc1 (stereo not drawn) [AKC 122],–,–,–,–,–,–,–,–,–,–,–,–,"5 Day Visual Score V6 [12]: OK (no effect (˜1000+ progeny)); 5 Day Visual Score V2 [13]: L1; 5 Day Visual Score V1 (70 μM, C. elegans L1, scored day 5): Dead"
C=CCN(CC=C)c1nc(NCc2ccccc2C(F)(F)F)ns1 [compound 321],116,–,186,95,Dead/2L2,105,–,–,–,–,–,–,5 Day Visual Score V4 [7]: OK (no effect (˜1000+ progeny)); 5 Day Visual Score V5 [8]: OK (no effect (˜1000+ progeny)); 5 Day Visual Score V6 [9]: OK (no effect (˜1000+ progeny))
OCC1CCCN1c1nc(NCc2ccc(C(F)(F)F)cc2)ns1 (stereo not drawn) [compound 316],106,L2,171,100,Dead(L3),110,–,–,–,–,–,–,5 Day Visual Score V1 [5]: Dead; 5 Day Visual Score V2 [14]: Dead(L3); 5 Day Visual Score V3 [6]: ˜B (moderate broodsize (100-250 progeny)); 5 Day Visual Score V4 [7]: < (reduced broodsize (250-500 progeny)); 5 Day Visual Score V5 [8]: OK (no effect (˜1000+ progeny)); 5 Day Visual Score V6 [9]: OK (no effect (˜1000+ progeny))
CC1CCN(c2nc(NCc3ccccc3)ns2)CC1 [compound 261],96,–,155,96,L3/L4/AD/B!,106,Dead,OK (no effect (˜1000+ progeny)),OK (no effect (˜1000+ progeny)),OK (no effect (˜1000+ progeny)),–,OK (no effect (˜1000+ progeny)),–
CCCCCCCCCCCCCCCCCCN(C)c1nc(NCCC(c2ccccc2)c2ccccc2)ns1 [compound 288],82,L4/AD/B!,132,105,L3/L4/1AD/B,116,L1,OK (no effect (˜1000+ progeny)),OK (no effect (˜1000+ progeny)),OK (no effect (˜1000+ progeny)),B (low broodsize (25-100 progeny)),OK (no effect (˜1000+ progeny)),–
